Patent publication US20260183283A1 (priority 2022, published 2026)

How the values were obtained:
[1] = in vivo
Method: Holter monitoring will be obtained as indicated in the SOE. Blood and urine for PK and PD will be obtained and safety assessments will be performed. In addition, Cohort 3 (70 mg cohort) will have CSF obtained via lumbar puncture for PK assessment.

[2] = tested on: Pcca^−/−PCCA(A138T)^tg/0 mice; test: Plasma and urine metabolites (TCA cycle intermediates) in Pcca−/−PCCA(A138T)tg/0 mice; format: in vivo; details: 22.5 ppm (3 mg/kg) in chow
Method: The mice were maintained at 72′±2° F., humidity 50%±10% and a 14-hour light/10-hour dark cycle with the dark cycle starting at 20:00 hrs. Water was supplied ad libitum. The mice were randomized into the treatment arms to achieve a normal weight distribution. […] Blood was collected in ethylenediaminetetraacetic acid (EDTA) at P50 by cardiac puncture from isoflurane-anesthetized animals, plasma was prepared and stored frozen at −80° C. until analysis. Liver, brain, and heart were quickly excised, immediately flash frozen in liquid nitrogen and stored frozen at −80° C. until analysis.
Metabolites from Urine and Plasma: Water was added to thawed 24-hr urine samples to a final volume of 1 mL for each mouse. To 100 μL of urine or 20 μL of plasma, warfarin standard was added at a final concentration of 0.2 μM and the sample was incubated at −80° C. for 1 hour. The sample was centrifuged at 6000×g for 10 minutes to remove precipitants and the supernatant was analyzed by LC/MS/MS. Analysis was performed using a Shimadzu Prominence UFLC attached to a QTrap 4500 equipped with a Turbo V ion source (Sciex). […] The system was controlled by the Analyst® software (Sciex) and analyzed with MultiQuant™ 3.0.2 software (Sciex). The relative amount of metabolite was normalized to the amount of warfarin then the ratio to creatinine was calculated.

[3] = oral gavage 10 mg/animal and 200 mg/animal; tablet or suspension
in vivo [4] = details: rat
[5] = tested on: SynCre^+Pank1^−/−Pank2^−/− mice; test: Neurometabolites by 1H MRS in SynCre+Pank1−/−Pank2−/− mice; format: in vivo; details: 10 mg/kg/day (75 ppm) in chow; midbrain 1H MRS at P45; normalized to total creatine; mean ± SD
Method: The ^1H MRS studies were performed on a Bruker Clinscan 7T magnetic resonance imaging (MRI) scanner (Bruker BioSpin MRI GmbH, Ettlingen, Germany). Mice were anesthetized using isoflurane mixed with oxygen (1-2%) and the respiration rate was monitored. Each MRI was acquired with a mouse brain surface receive coil positioned over the mouse head and placed inside a 72 mm transmit/receive coil. After the localizer, a T2-weighted turbo spin echo sequence was performed in the coronal (TR/TE=2290/41 ms, matrix size=192×256, slice thickness 0.5 mm, number of slices=14) and axial (TR/TE=3841/50 ms, matrix size=192×144, slice thickness 0.4 mm, number of slices=42) orientations. The T2-weighted scans were used to position a 3.5×4.5×2.0 mm^3 voxel for spectroscopy in the midbrain to cover thalamus and hippocampus. […] The in vivo ^1H MRS data were quantified as the Metabolite to tCr ratio using LCModel software (v.6.3), a widely applied MRS analysis tool that employs a least-squares-based prior-knowledge fitting program. The concentration of metabolites was measured using the unsuppressed water peak as a concentration standard. […]
Data analysis: Statistical significance (p values) was determined using a two-tailed Student's t test using GraphPad software. The MRS parameters were analyzed using ‘R’ 4.0.2 and the mean values and standard deviations were calculated for each group of mice. […]

in vivo [6] = details: female, rat
in vivo [7] = details: monkey
in vivo [8] = details: dog
[9] = tested on: Pank1,2 neural knockout mice; test: Total forebrain CoA in Pank1,2 neural knockout mice; format: in vivo; details: 75 ppm in chow from postnatal day 14; assessed at postnatal day 45
Text: Water was supplied ad libitum. Mice were maintained on a chow diet with purified ingredients containing 19% kcal protein, 66.5% kcal carbohydrate and 14.4% kcal fat (Envigo #TD170542) which was similar to standard rodent chow (LabDiet #5013). The mice were randomized into the treatment arms. […] However, this is an approximation, as SynCre^+Pank1^−/−Pank2^−/− mice both weigh less and eat less than wild-type mice. […] At the end of the dark cycle, individual mice were placed in an open rectangular arena (36.8 cm×43.2 cm) for 5 min during the light cycle and motor activity was evaluated using a video tracking system provided by HVS Image with associated 2100 Plus software (San Diego, CA, USA). Each animal was placed in the center of the arena under standard overhead lighting and the total distance traveled and the percentage of time in motion were recorded. The behaviors of age-matched control animals, treated with Compound (I) and untreated, were quantified and compared. […] Liver, forebrain and hindbrain were quickly excised, approximately 30-50 mg pieces were immediately flash frozen in liquid N2 and stored frozen at −80° C. until analysis. The plasma and tissue samples were used for Compound (I) and total CoA determinations.
Statistical significance was determined using a two-tailed Student's t test (GraphPad software) and P-values are shown about the bars, N=6-8. […]

clinical = details: for half-life / AUC / Cmax / Tmax: human, plasma; for AUC: AUCtau; for AUC / Cmax: arithmetic mean
Text: Following the screening period, eligible subjects will be admitted to the clinical unit on Day 1. All subjects will receive the study drug for 7 days starting on Day 1. […] Dosing frequency and any instructions regarding meal intake will depend on data from the SAD cohorts and will be provided in a separate document. The dosing duration may be increased to up to 14 days to allow for achievement of 3 half-lives. […] Subjects will return for an EOS visit on Day 15 or up to approximately 5 half-lives up to a maximum of Day 42 (whichever is longer).
The tentative starting dose for this portion of the study will be 30 mg daily. Dose escalation for Cohort 2 and beyond will be based on the safety, tolerability, and PK of the previous cohort. […] Planned doses for subsequent cohorts are 60, 120, 200, and 300 mg daily; the maximum dose increment between cohorts will be no more than 2 times the previous dose.

O=C(Cc1ccc(C2CC2)c(F)c1)N1CCN(c2ccc(Cl)nn2)CC1 [Compound (I), 1-(4-(6-chloropyridazin-3-yl)piperazin-1-yl)-2-(4-cyclopropyl-3-fluorophenyl)ethan-1-one]
Blood brain barrier penetration [1]: crossed the blood brain barrier | Levels of methylcitrate, methylmalonate and α-ketoglutarate in plasma [2]: reduced | Dose proportionality of exposure as defined by AUC0-24 [3]: dose proportional | Dose proportionality of exposure as defined by Cmax [3]: close to dose proportional | clearance (in vivo [4]; iv): 32.6 mL/min/kg | bioavailability (in vivo [4]; po): 35.2% | GABA (GABA/tCr) [5]: 0.40 ± 0.02 | NOAEL at 13 weeks (in vivo [6]): 8 mg/kg/day | clearance (in vivo [7]; iv): 19.7 mL/min/kg | bioavailability (in vivo [7]; po): 17.6% | clearance (in vivo [8]; iv): 16.9 mL/min/kg | bioavailability (in vivo [8]; po): 29.8% | Increase of forebrain CoA levels vs untreated mice [9]: ~70% | Urinary excretion of Compound (I) (clinical; healthy subjects): negligible | half-life (clinical; oral): 6 to 8 h | half-life (clinical; oral, 30 mg): 7.55 h | AUC (clinical; oral, 30 mg, 30 mg QD, Day 1, AUC0-24): 476 ng·h/mL | AUC (clinical; oral, 30 mg, 30 mg QD, Day 7, AUC0-24): 913 ng·h/mL | Cmax (clinical; oral, 30 mg, 30 mg QD, Day 1): 98.3 ng/mL | Cmax (clinical; oral, 30 mg, 30 mg QD, Day 7): 158 ng/mL | Tmax (clinical; oral, 30 mg, Tmax, 30 mg QD, Day 1, median): 1.5 h | Tmax (clinical; oral, 30 mg, Tmax, 30 mg QD, Day 7, median): 1.5 h | AUC (clinical; oral, 50 mg, 50 mg Q12H, Day 1, AUC0-12): 925 ng·h/mL | Cmax (clinical; oral, 50 mg, 50 mg Q12H, Day 1): 155 ng/mL | Tmax (clinical; oral, 50 mg, Tmax, 50 mg Q12H, Day 1, median): 1.5 h | half-life (clinical; oral, 60 mg): 6.7 h | AUC (clinical; oral, 60 mg, 60 mg QD, Day 1, AUC0-24): 1670 ng·h/mL | AUC (clinical; oral, 60 mg, 60 mg QD, Day 7, AUC0-24): 4050 ng·h/mL | Cmax (clinical; oral, 60 mg, 60 mg QD, Day 1): 240 ng/mL | Cmax (clinical; oral, 60 mg, 60 mg QD, Day 7): 505 ng/mL | Tmax (clinical; oral, 60 mg, Tmax, 60 mg QD, Day 1, median): 1.75 h | Tmax (clinical; oral, 60 mg, Tmax, 60 mg QD, Day 7, median): 2.01 h | half-life (clinical; oral, 70 mg): 6.83 h | AUC (clinical; oral, 70 mg, 70 mg QD, Day 7, AUC0-24): 2950 ng·h/mL | Cmax (clinical; oral, 70 mg, 70 mg QD, Day 1): 205 ng/mL | Cmax (clinical; oral, 70 mg, 70 mg QD, Day 7): 400 ng/mL | Tmax (clinical; oral, 70 mg, Tmax, 70 mg QD, Day 1, median): 1.5 h | Tmax (clinical; oral, 70 mg, Tmax, 70 mg QD, Day 7, median): 1.5 h | Tmax (clinical; po, Tmax after oral administration, healthy subjects, over cohorts): 1 to 2 h | Increase in exposure with dose (clinical; total daily dose increased from 30 mg to 100 mg): more than dose-proportional
